Read-outs that look alike come from different tables or passages of the source. Where a SMILES comes first, the peptide text is derived from it. [ ]: non-standard residue; d: D form. The star is where a group is joined. Dolaproine = CO[C@@H]([C@@H]1CCCN1)[C@@H](C)C(=O)O; Dil = CC[C@H](C)[C@H](NC)[C@@H](CC(=O)O)OC; X1 = C[C@@H](N*)[C@@H](O)c1ccccc1; NMeV = CN[C@H](C(=O)O)C(C)C

Common to all, as to type: cell-based
In assay [1] the test system is Caski (a cervical cancer cell line). The assay is described as follows: In-vitro cell viability assay (CellTiter-Glo). Conditions: Homo sapiens, Ca-Ski, 144 h. On the technique in general: Cellular ATP, detected with luciferase, serves as a proxy for viable cell number.
The test system of assay [2] is HPAF-II (a pancreatic cancer cell line). The assay is described as follows: In-vitro cell viability assay (CellTiter-Glo). Conditions: Homo sapiens, 144 h.
For assay [3], the system named is KYSE-520 (an esophageal cancer cell line). Put plainly: In-vitro cell viability assay (CellTiter-Glo). The conditions noted are these: Homo sapiens.
Assay [4] concerns MCF-7 (a breast cancer cell line). Put plainly: In-vitro cell viability assay (CellTiter-Glo). Conditions: MCF7a, 144 h.
The subject of assay [5] is A431 (a skin cancer cell line). Put plainly: In-vitro cell viability assay (CellTiter-Glo). The conditions noted are these: Homo sapiens, A-431, 144 h.
Assay [6] concerns T47D (a breast cancer cell line). Put plainly: cells. Conditions: Homo sapiens, 144 h.
Setting [7] is: 6 days incubation, read-out: IC50.

Turning to `CC[C@H](C)[C@@H]([C@@H](CC(=O)N1CCC[C@H]1[C@H](OC)[C@@H](C)C(=O)N[C@H](C)[C@@H](O)c1ccccc1)OC)N(C)C(=O)[C@@H](NC(=O)[C@@H](NC)C(C)C)C(C)C` [MMAE, monomethyl auristatin E] (H-[NMeV]V[Dil][Dolaproine]-X1), the IC50 (commonly the concentration that inhibits the measured activity by half) in assay [1] (Caski, 6 days incubation, read-out: IC50) was found to be 34 pM; in assay [2] (setting [7]) it was 45 pM; in assay [3] (144 h, KYSE-520, 6 days incubation, read-out: IC50), 120 pM; in assay [4] (MCF-7, 6 days incubation, read-out: IC50), 820 pM; in assay [5] (A431, 6 days incubation, read-out: IC50), 32 pM; in assay [6] (setting [7]), 160 pM.

Turning to `CC[C@@]1(O)C(=O)OCc2c1cc1n(c2=O)Cc2c-1nc1cc3c(c4c1c2[C@@H](NC(=O)[C@@H](C)O)CC4)OCO3` [PBX-7016], the IC50 was 750 pM in assay [1]; 2870 pM in assay [2]; 2060 pM in assay [3] (KYSE-520, 144 h); 6020 pM in assay [4]; 1940 pM in assay [5]; 460 pM in assay [6].

Values taken from EP4796130A1, “ANTI-TISSUE FACTOR ANTIBODY-DRUG CONJUGATE COMPRISING CAMPTOTHECIN DERIVATIVE” (Celltrion, Inc., priority 2023, dated 2025).
